The source of these data is patent US7312213B2, “Substituted benzo[e][1,4]oxazino[3,2-g]isoindole compounds” (Les Laboratories Servier, priority 2002, dated 2007).

pIC50: −log10 of the molar value. Counter-ions that a name gives are not always drawn.

The subject of one series is L1210 murine leukaemia. Nature of the series: In vitro cytotoxicity, L1210 murine leukaemia (Microculture Tetrazolium Assay). Format: cell-based. Conditions: Mus musculus; L1210, 48 hours exposure (4 doubling periods); read-out: IC50, concentration of cytotoxic agent that inhibits the proliferation of the treated cells by 50%. The protocol:
(§1) L1210 murine leukaemia was used in vitro. The cells are cultured in RPMI 1640 complete culture medium containing 10% foetal calf serum, 2 mM glutamine, 50 units/ml of penicillin, 50 μg/ml of streptomycin and 10 mM Hepes, pH=7.4. The cells are distributed on microplates and are exposed to the cytotoxic compounds for 4 doubling periods, or 48 hours. The number of viable cells is then quantified by a colorimetric assay, the Microculture Tetrazolium Assay (J. Carmichael et al., Cancer Res.; 47, 939-942 (1987)). The results are expressed as the IC50, the concentration of cytotoxic agent that inhibits the proliferation of the treated cells by 50%.

The subject of the next series is DU145 prostate carcinoma. Nature of the series: In vitro cytotoxicity, human solid tumour cell line DU145. The settings on record: DU-145, 96 h, incubation 4 days. Type of series: cell-based. On the procedure: as §1
(§2) The compounds of the invention were also tested on human cell lines originating from solid tumours, in accordance with the same test protocol as that described for L1210 murine leukaemia but with incubation periods of 4 days instead of 2 days.

The subject of series [1] is A549 non-small-cell lung carcinoma. Nature of the series: In vitro cytotoxicity, human solid tumour cell line A549. Conditions: 96 h, incubation 4 days. Format: cell-based. On the procedure:
as §1, §2

The subject of another series is HT-29 colon carcinoma. Nature of the series: In vitro cytotoxicity, human solid tumour cell line HT-29. Format: cell-based. The settings on record: 96 h, incubation 4 days. On the procedure:
as §1, §2

Series [2] has as its system KB-3-1 epidermoid carcinoma. Nature of the series: In vitro cytotoxicity, human solid tumour cell line KB-3-1. Format: cell-based. Conditions: 96 h, incubation 4 days. The protocol: as §1, §2

For `CN(C)CCn1c(=O)c2c3cc(OCCO)ccc3c3c(oc4ccccc4n3C(=O)OC(C)(C)C)c2c1=O` [Example 3, 8-(tert-Butoxycarbonyl)-2-[2-(dimethylamino)ethyl]-5-(2-hydroxy-ethoxy)-2,3-dihydrobenzo[a]pyrrolo [3,4-c]phenoxazine-1,3-dione], the melting point was > 80 °C (dec.).
In the case of `CN(C)CCn1c(=O)c2c3cc(O)ccc3c3c(oc4ccccc4n3C(=O)OC(C)(C)C)c2c1=O` [Example 1, 8-(tert-Butoxycarbonyl)-2-[2-(dimethylamino)ethyl]-5-hydroxy-2,3-dihydrobenzo[a]pyrrolo[3,4-c]phenoxazine-1,3-dione], the melting point is 190 °C (dec.).
In the case of `CN(C)CCn1c(=O)c2c3cc(O)ccc3c3[nH]c4ccccc4oc3c2c1=O` [Example 2, 2-[2-(Dimethylamino)ethyl]-5-hydroxybenzo[a]pyrrolo[3,4-c]phenoxazine-1,3-dione hydrochloride], the pIC50 in the series on L1210 murine leukaemia was 6.60; in the series with DU145 prostate carcinoma, 6.57; in series [1], 6.80; in the series on HT-29 colon carcinoma, 6.22; in series [2], 6.59.
`CN(C)CCn1c(=O)c2c3cc(OCCO)ccc3c3c(oc4ccccc4n3C=O)c2c1=O` [Example 7, 8-(Formyl)-2-[2-(dimethylamino)ethyl]-5-(2-hydroxyethoxy)-benzo[a]pyrrolo[3,4-c]phenoxazine-1,3-dione] returned a melting point of 202 °C.
Same read-out and setting: as for `Cn1c(=O)c2c3cc(OCCO)ccc3c3c(oc4cccnc4n3C(=O)Oc3ccccc3)c2c1=O` [Example 8, 8-(Phenoxycarbonyl)-5-(2-hydroxyethoxy)-2-methyl-2,3-dihydrobenzo[e]pyrido[2′,3′:5,6][1,4]oxazino[3,2-g]isoindole-1,3-dione], the figure is 250 °C; as for `CN(C)CCn1c(=O)c2c3cc(OCCO)ccc3c3[nH]c4ccccc4oc3c2c1=O` [Example 6, 2-[2-(Dimethylamino)ethyl]-5-(2-hydroxyethoxy)benzo-[a]pyrrolo[3,4-c]phenoxazine-1,3-dione], 216 °C.
